The nature of the assay: Agonist activity at adrenergic beta2 receptor in guinea pig tracheal rings assessed as myorelaxing activity on carbachol-induced contraction in presence of propranolol.

Where “and” joins values, the source holds several entries; their conditions need not be identical. Identical values can stand only once.

`Cc1c(COc2ccc(CC(C)NCC(O)c3cc(O)cc(O)c3)cc2)no[n+]1[O-]` (stereo unspecified) [5-(1-hydroxy-2-{1-methyl-2-[4-(4-methyl-5-oxy-furazan-3-ylmethoxy)-phenyl]-ethylamino}-ethyl)-benzene-1,3-diol]: the 50% effective concentration (EC50) (in general, the midpoint of the concentration-response curve) is 55 µM and 54 µM.

Source of the values: BindingDB's records for doi:10.1021/jm0704595 (University of Turin, 2007).
